Assay results: US20100069366A1, “ANTIBACTERIAL QUINOLINE DERIVATIVES” (JANSSEN-CILAG, priority 2006, published 2010)
Values after ≈ are worked out from the molar mass of the structure shown. Like-named read-outs stand apart in the source and are kept apart here.

Key:
Format in all cases: cell-based
M. Smegmatis ATCC607 = test: In-vitro anti-bacterial activity against strain M. smegmatis ATCC607; settings: for IC90: Mycolicibacterium smegmatis
Protocol: Flat-bottom, sterile 96-well plastic microtiter plates were filled with 180 μl of sterile deionized water, supplemented with 0.25% BSA. Subsequently, stock solutions (7.8× final test concentration) of compounds were added in 45 μl volumes to a series of duplicate wells in column 2 so as to allow evaluation of their effects on bacterial growth. Serial five-fold dilutions (45 μl in 180 μl) were made directly in the microtiter plates from column 2 to 11 using a customised robot system (Zymark Corp., Hopkinton, Mass.). Pipette tips were changed after every 3 dilutions to minimize pipetting errors with high hydrophobic compounds. Untreated control samples with (column 1) and without (column 12) inoculum were included in each microtiter plate. Approximately 250 CFU per well of bacteria inoculum, in a volume of 100 μl in 2.8× Mueller-Hinton broth medium, was added to the rows A to H, except column 12. The same volume of broth medium without inoculum was added to column 12 in row A to H. The cultures were incubated at 37° C. for 48 hours in a humidified 5% CO2 atmosphere (incubator with open air valve and continuous ventilation). At the end of incubation, two days after inoculation, the bacterial growth was quantitated fluorometrically. Therefore Alamar Blue (10×) was added to all wells in a volume of 20 μl and plates were incubated for another 2 hours at […]
The fluorescence was read in a computer-controlled fluorometer (Cytofluor, Biosearch) at an excitation wavelength of 530 nm and an emission wavelength of 590 nm (gain 30).

[1] = tested on: Staphylococcus aureus (ATCC29213); test: Microtitre plate assay, IC90 determination, STA 29213
Protocol: (§1) The bacteria used in this study were grown overnight in flasks containing 100 ml Mueller-Hinton Broth (Becton Dickinson—cat. no. 275730) in sterile de-ionized water, with shaking, at 37° C. Stocks (0.5 ml/tube) were stored at −70° C. until use. Bacteria titrations were performed in microtiter plates to detect the TCID50, in which the TCID50 represents the dilution that gives rise to bacterial growth in 50% of inoculated cultures.
(§2) In general, an inoculum level of approximately 100 TCID50 was used for susceptibility testing.
(§3) Flat-bottom, sterile 96-well plastic microtiter plates were filled with 180 μl of sterile deionized water, supplemented with 0.25% BSA. Subsequently, stock solutions (7.8× final test concentration) of compounds were added in 45 μl volumes in column 2 Serial five-fold dilutions (45 μl in […]) were made directly in the microtiter plates from column 2 to reach column 11. Untreated control samples with (column 1) and without (column 12) inoculum were included in each microtiter plate. Depending on the bacteria type, approximately 10 to 60 CFU per well of bacteria inoculum (100 TCID50), in a volume of 100 μl in 2.8× Mueller-Hinton broth medium, was added to the rows A to H, except column 12. The same volume of broth medium without inoculum was added to column 12 in row A to H. The cultures were incubated at 37° C. for 24 hours under a normal atmosphere (incubator with open air valve and continuous ventilation). At the end of incubation, one day after inoculation, the bacterial growth was quantitated fluorometrically. Therefore resazurin (0.6 mg/ml) was added in a volume of 20 μl to all wells 3 hours after inoculation, and the plates were re-incubated overnight. A change in colour from blue to pink indicated the growth of bacteria. The fluorescence was read in a computer-controlled fluorometer (Cytofluor Biosearch) at an excitation wavelength of 530 nm and an emission wavelength of 590 nm. The % growth inhibition achieved by the compounds was calculated according to standard methods.

[2] = tested on: Streptococcus pneumoniae (ATCC6305); test: Microtitre plate assay, IC90 determination, SPN 6305; settings: 90% inhibitory concentration for bacterial growth, resazurin
Protocol: as §1, §2, §3

[3] = ATCC607, 48 h, read-out: M. smegmatis IC90 (μg/ml), 90% inhibitory concentration for bacterial growth, Alamar Blue fluorescence
[4] = Staphylococcus aureus, ATCC29213, read-out: IC90 (μg/ml) STA 29213
[5] = Streptococcus pneumoniae, ATCC6305, read-out: IC90 (μg/ml) SPN 6305, Streptococcus pneumoniae ATCC6305
[6] = 90% inhibitory concentration for bacterial growth, 48 hours, Alamar Blue fluorescence
[7] = Staphylococcus aureus ATCC29213, 90% inhibitory concentration for bacterial growth, resazurin
[8] = Streptococcus pneumoniae ATCC6305
[9] = ATCC607, 90% inhibitory concentration for bacterial growth, 48 hours, Alamar Blue fluorescence, read-out: M. smegmatis IC90
[10] = Streptococcus pneumoniae ATCC6305, read-out: IC90 (μg/ml) SPN 6305
[11] = Staphylococcus aureus ATCC29213, 90% inhibitory concentration for bacterial growth, resazurin, read-out: IC90 (μg/ml) STA 29213

| SMILES | IC90 (M. Smegmatis ATCC607; [3]) [µg/mL] | IC90 [1, 4] [µg/mL] | IC90 [2, 5] [µg/mL] | M. smegmatis IC90 (M. Smegmatis ATCC607; [6]) [µg/mL] | IC90 (μg/ml) SPN 6305 [2, 8] [µg/mL] | other results |
| --- | --- | --- | --- | --- | --- | --- |
| COc1nc2ccc(Br)cc2cc1/C(=C(/CCN(C)C)c1ccccc1)c1ccc(Cl)cc1 [Compound 1] | 1.65 (≈ 3.16 µM) | 8.27 (≈ 15.8 µM) | 1.65 (≈ 3.16 µM) | – | – | – |
| N#Cc1ccc(/C(=C(\CCCCN2CCCCC2)c2ccc(Cl)cc2)c2cnc3ccccc3c2)cc1 [Compound 55] | 8.02 (≈ 15.8 µM) | 8.02 (≈ 15.8 µM) | 10.1 (≈ 20 µM) | – | – | – |
| N#Cc1ccc(/C(=C(\CCCCN2CCCCC2)c2ccccc2)c2cnc3ccccc3c2)cc1 [Compound 54] | 11.8 (≈ 25.1 µM) | 42 (≈ 89.1 µM) | 47.2 (≈ 100 µM) | – | – | – |
| COc1nc2ccc(-c3cc4ccccc4s3)cc2cc1C(C(=CCN(C)C)c1cccc(F)c1)c1ccccc1 (racemic) [Compound 33] | – | – | – | 7.03 | 7.89 (≈ 14.1 µM) | IC90 (μg/ml) STA 29213 [1, 7]: 8.86 µg/mL (≈ 15.9 µM) |
| COc1nc2ccc(-c3ccco3)cc2cc1/C(=C(/CCN(C)C)c1cccc2ccccc12)c1ccccc1 [Compound 22] | 1.66 (≈ 3.16 µM) | 20.9 (≈ 39.8 µM) | 20.9 (≈ 39.8 µM) | – | – | – |
| COc1nc2ccc(F)cc2cc1C(=C(CCN(C)C)c1ccccc1)c1ccccc1 (single isomer, unassigned) [Compound 39] | – | – | – | 16.98 | 8.51 (≈ 20 µM) | IC90 (μg/ml) STA 29213 [1, 7]: 33.88 µg/mL (≈ 79.4 µM) |
| Clc1ccc(/C(CCCCN2CCCCC2)=C(/c2ccccc2)c2cnc3ccccc3c2)cc1 [Compound 50] | 1.92 (≈ 3.99 µM) | – | 9.6 (≈ 20 µM) | – | – | – |
| COc1nc2ccc(Br)cc2cc1C(C(=CCN1CCN(C)CC1)c1ccccc1)c1ccccc1 (racemic) [Compound 48] | – | – | – | 1.72 | 2.72 (≈ 5.01 µM) | IC90 (μg/ml) STA 29213 [1, 7]: 10.82 µg/mL (≈ 19.9 µM) |
| COc1ccc(/C(CCCCN2CCCCC2)=C(/c2ccc(C#N)cc2)c2cnc3ccccc3c2)cc1 [Compound 56] | – | – | – | – | – | IC90 (M. Smegmatis ATCC607; [9]): 7.95 µg/mL (≈ 15.8 µM); IC90 [2, 10]: 12.6 µg/mL (≈ 25.1 µM) |
| COc1nc2ccc(Br)cc2cc1C(=C(CCN1CCN(C)CC1)c1ccccc1)c1ccccc1 (mixture of isomers) [Compound 44] | – | – | – | 4.31 | 10.82 | IC90 (μg/ml) STA 29213 [1, 7]: 10.82 µg/mL |
| COc1nc2ccc(-c3cc4ccccc4s3)cc2cc1C(C(=CCN(C)C)c1cccc2ccccc12)c1ccccc1 (mixture of isomers) [Compound 34] | – | – | – | 2.35 | 10.51 | – |
| COc1nc2ccc(Br)cc2cc1/C(=C(\C)CCN(C)C)c1ccccc1 [Compound 15] | – | – | – | – | – | IC90 (M. Smegmatis ATCC607; [9]): 1.35 µg/mL (≈ 3.17 µM); IC90 [1, 11]: 33.8 µg/mL (≈ 79.4 µM); IC90 [2, 10]: 6.74 µg/mL (≈ 15.8 µM) |
| COc1nc2ccc(Br)cc2cc1C(/C(=C/CCCN1CCCN(C)CC1)c1ccc2ccccc2c1)c1ccccc1 (centres unmarked) [Compound 63] | – | – | – | – | – | IC90 (M. Smegmatis ATCC607; [9]): 3.57 µg/mL (≈ 5.63 µM); IC90 [1, 11]: 2.25 µg/mL (≈ 3.55 µM) |
| CSc1nc2ccc(Br)cc2cc1/C(=C(/CCN(C)C)c1ccccc1)c1ccccc1 [Compound 2] | 1.59 (≈ 3.16 µM) | 7.98 (≈ 15.8 µM) | 1.59 (≈ 3.16 µM) | – | – | – |
| COc1nc2ccc(Br)cc2cc1C(/C(=C\CN(C)C)c1ccsc1)c1ccccc1 (centres unmarked) [Compound 16] | – | – | – | – | – | IC90 (M. Smegmatis ATCC607; [9]): 1.75 µg/mL (≈ 3.55 µM); IC90 [1, 11]: 7.82 µg/mL (≈ 15.8 µM); IC90 [2, 10]: 1.56 µg/mL (≈ 3.16 µM) |
| COc1nc2ccc(Br)cc2cc1C(=C(CCN1CCN(C)CC1)c1ccccc1)c1ccccc1 (mixture of isomers) [Compound 45] | – | – | – | 9.65 | 10.82 | IC90 (μg/ml) STA 29213 [1, 7]: 43.09 µg/mL |
| c1ccc(/C(CCCCN2CCCCC2)=C(/c2ccccc2)c2cnc3ccccc3c2)cc1 [Compound 49] | 7.08 (≈ 15.9 µM) | 44.7 (≈ 100 µM) | 8.91 (≈ 19.9 µM) | – | – | – |
| COc1nc2ccc(Br)cc2cc1C(/C(=C/Cc1ccccc1)CCN(C)C)c1ccccc1 (centres unmarked) [Compound 7] | – | – | – | – | – | IC90 (M. Smegmatis ATCC607; [9]): 1.63 µg/mL (≈ 3.16 µM); IC90 [1, 11]: 1.63 µg/mL (≈ 3.16 µM); IC90 [2, 10]: 2.05 µg/mL (≈ 3.98 µM) |
